From US11512085B2, “Heteroaryl compound having drug activity” (SHANGHAI DUDE MEDICAL TECHNOLOGY CO., LTD, priority 2017, dated 2022) come the findings set out here.

Each structure is given as a SMILES string. pIC50: −log10 of the molar value. Where two headings read alike, the source gives them in different places.

In series [1] the target is Lck (Homo sapiens, UniProt P06239). In words: Btk selectivity over Lck (same kinase method, Btk replaced). The format is biochemical. Conditions: ratio of IC50 values. As for the experimental part: Other kinases (e.g., inhibitory activity of Lck and LynA is determined by replacing the Btk with various kinases and performing operations the same as that in the above method).
Lck, sequence (P06239 whole entry): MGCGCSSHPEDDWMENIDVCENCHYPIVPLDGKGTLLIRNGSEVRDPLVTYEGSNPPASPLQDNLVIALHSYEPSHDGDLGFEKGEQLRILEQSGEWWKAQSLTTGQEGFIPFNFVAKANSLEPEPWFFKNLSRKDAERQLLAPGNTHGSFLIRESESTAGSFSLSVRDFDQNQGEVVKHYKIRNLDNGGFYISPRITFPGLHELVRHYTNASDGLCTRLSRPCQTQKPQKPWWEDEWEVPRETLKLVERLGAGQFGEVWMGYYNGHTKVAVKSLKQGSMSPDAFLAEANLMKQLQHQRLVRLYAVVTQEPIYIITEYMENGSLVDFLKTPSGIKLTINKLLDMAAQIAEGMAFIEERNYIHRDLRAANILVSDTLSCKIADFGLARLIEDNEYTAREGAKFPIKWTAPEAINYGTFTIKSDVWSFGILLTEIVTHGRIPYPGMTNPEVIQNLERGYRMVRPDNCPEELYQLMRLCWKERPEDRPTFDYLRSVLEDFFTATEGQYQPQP

Series [2] has as its system B cells. In words: B cell activation (anti-human IgM, CD69 staining). The format is cell-based. Conditions: concentration of 0.1 uM. The protocol: (§1) Biological Embodiment 3: Influences of In-Vitro Test Compounds on PBMC/B/T Cell Activation
(§2) 4.3 Isolation of B Cells and T Cells
(§3) Cell Isolation Programs Shall Refer to […] Kits
4.4.1 Activation of B Cells
(§4) The co-culture system is as follows:
(§5) Antibody Staining and Data Analysis
(§6) Antibody staining was performed within 24 hours […] according to a standard method.
4.5.1 Activation of PBMC and B Cells
(§7) LIVE/DEAD Fixable Violet Dead Cell Stain Kit

Series [3] has as its system T cells. In words: T cell activation (CD3/CD28 dynabeads, CD69 staining). The format is cell-based, Human. Particulars: concentration of 10 uM. As for the experimental part: as §1, §2, §3
4.4.3 Activation of T Cells
as §4, §5, §6
4.5.2 Activation of T Cells
FITC Mouse Anti-Human CD4
PerCP-Cy™5.5 Mouse Anti-Human CD8
as §7

Series [4] in a line: Pharmacokinetic study, single intravenous and oral dose, beagle dogs. Particulars: male, blood; for AUC(0-t) / Cmax / Tmax / half-life: Dog; for half-life: read-out: T½ (converted). The format is in vivo. The protocol:
Biological Embodiment 7: Pharmacokinetic Study of Performing Respective Single Intravenous and Oral Dose Delivery with Test Samples on SD Rats and Beagle Dogs
6 male beagle dogs were selected, grouped and administered according to an experimental design table; 3 animals in the first group were intravenously administered once on the day of administration, wherein the administration dosage was 2 mg/kg, and the administration volume was 2.5 mL/kg; 3 animals in the second group were orally intragastrically administered once on the day of administration, wherein the administration dosage was 30 mg/kg, and the administration volume was 5 mL/kg.
All the animals were subjected to cage edge observation twice every day so as to determine whether the animals got ill or had injuries or death and other situations and whether supply of foods and water was sufficient. In the test process, all administered animals were subjected to detailed clinical observation before administration and at blood collection points.
Before administration (0 h) and within 0.083 h, 0.25 h, 0.5 h, 1 h, 2 h, 4 h, 6 h, 8 h and 24 h after administration, blood samples were collected from femoral veins at 10 time points so as to be used for blood concentration test. Experimental design table

Series [5] deals with WSU-DLCL-2. In words: In vitro tumor cell proliferation (CellTiter-Glo), WSU-DLCL-2. Particulars: Homo sapiens, WSUDLCL2; WSU-DLCL-2, 72 h; read-out: Growth IC50. The format is cell-based. As for the experimental part:
(§8) Biological Embodiment 8: Study on Effects of Active Compounds for Inhibiting In Vitro Tumor Cell Proliferation
(§9) Promega CellTiter-Glo cell activity detection kit by luminescence (Promega-G7573).
(§10) Tumor cell lines were cultured in a 5% of CO2 incubator at 37° C. according to respective culture conditions; and periodic passage was performed, and cells positioned in a logarithmic phase were taken for planking.
(§11) 3) 90 μL of cell suspension was added into each well of the culture plate, and a culture solution containing no cell was added into blank control;
(§12) 4) the culture plate was cultured overnight in the 5% of CO2 incubator having relative humidity of 100% at 37° C.
(§13) Preparation of a 400× compound storage plate: the compound was diluted from the maximum concentration gradient to the lowest concentration with DMSO. […]
(§14) The following steps were performed according to the specification of the Promega CellTiter-Glo cell activity detection kit by luminescence (Promega-G7573). […]
(§15) 9) the luminescence signal was detected on the 2104 EnVision plate reader.
For orientation: In ATP-based viability assays light output follows the ATP content of the culture.

In series [6] the test system is Ramos. Description: In vitro tumor cell proliferation (CellTiter-Glo), Ramos. Format: cell-based. Particulars: Homo sapiens, 72 h, read-out: Growth IC50. The protocol: as §8, §9, §10, §11, §12, §13, §14, §15
Series [7] relates to Granta-519. In words: In vitro tumor cell proliferation (CellTiter-Glo), Granta-519. The format is cell-based. Conditions: Homo sapiens, Granta-519, 72 h; read-out: Growth IC50. As for the experimental part:
as §8, §9, §10, §11, §12, §13, §14, §15

The subject of series [8] is Raji. In words: In vitro tumor cell proliferation (CellTiter-Glo), Raji. Format: cell-based. Conditions: Homo sapiens, 72 h, read-out: Growth IC50. The protocol: as §8, §9, §10, §11, §12, §13, §14, §15
Series [9] concerns the target hERG channel (Homo sapiens, UniProt Q12809). Description: hERG current blocking test (whole-cell patch clamp). (Block of hERG is tested as a sign of cardiac risk.)

hERG channel, sequence (Q12809 whole entry): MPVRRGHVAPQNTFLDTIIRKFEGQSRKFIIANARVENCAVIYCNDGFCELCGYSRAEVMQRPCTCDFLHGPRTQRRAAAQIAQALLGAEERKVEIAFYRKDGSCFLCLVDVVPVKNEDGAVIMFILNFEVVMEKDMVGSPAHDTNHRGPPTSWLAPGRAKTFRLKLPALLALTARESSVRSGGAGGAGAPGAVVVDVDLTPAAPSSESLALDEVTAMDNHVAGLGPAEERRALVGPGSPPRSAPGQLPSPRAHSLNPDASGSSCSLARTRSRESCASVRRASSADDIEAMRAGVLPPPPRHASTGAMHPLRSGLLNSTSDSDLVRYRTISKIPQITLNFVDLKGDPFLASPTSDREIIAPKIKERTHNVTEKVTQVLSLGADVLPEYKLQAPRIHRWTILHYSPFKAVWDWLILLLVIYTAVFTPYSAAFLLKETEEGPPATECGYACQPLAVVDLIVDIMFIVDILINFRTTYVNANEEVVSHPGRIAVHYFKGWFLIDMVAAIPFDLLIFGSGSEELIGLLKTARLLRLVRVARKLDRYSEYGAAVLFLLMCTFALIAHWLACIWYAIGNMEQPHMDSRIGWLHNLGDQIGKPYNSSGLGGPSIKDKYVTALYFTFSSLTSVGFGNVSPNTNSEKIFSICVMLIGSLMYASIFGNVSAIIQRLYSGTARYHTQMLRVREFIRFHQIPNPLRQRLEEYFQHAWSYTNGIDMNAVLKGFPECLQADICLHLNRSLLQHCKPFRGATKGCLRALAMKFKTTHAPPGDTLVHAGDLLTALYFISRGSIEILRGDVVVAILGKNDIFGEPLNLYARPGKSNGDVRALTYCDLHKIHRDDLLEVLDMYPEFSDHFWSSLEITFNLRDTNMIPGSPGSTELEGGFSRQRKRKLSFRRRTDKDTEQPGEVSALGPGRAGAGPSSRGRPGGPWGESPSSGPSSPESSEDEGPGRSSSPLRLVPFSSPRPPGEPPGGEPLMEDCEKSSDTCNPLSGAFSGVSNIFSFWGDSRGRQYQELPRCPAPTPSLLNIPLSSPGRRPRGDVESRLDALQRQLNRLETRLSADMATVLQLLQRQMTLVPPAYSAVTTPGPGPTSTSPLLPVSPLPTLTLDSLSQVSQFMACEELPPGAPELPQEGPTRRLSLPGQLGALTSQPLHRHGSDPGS

Broadly, the AUC(0-t) is the area under the concentration-time curve up to a stated or last time point. Low values mean less exposure, high ones more exposure. For orientation: Cmax means the maximum level reached in the sampled fluid or tissue. In general, Tmax refers to the time from dosing to the highest level. As a reminder, the bioavailability is the share of a dose that reaches the circulation, judged against a reference dose that is usually intravenous. The low end stands for little systemic uptake, the high end for much systemic uptake. A word on the pIC50: it is −log10 of the IC50, conventionally taken in molar units. Consider `C=CC(=O)NN1CCCC(n2nc(-c3ccc(Oc4ccccc4)cc3)c3c(N)ncnc32)C1` (centres unmarked) [Embodiment 6, N-(3-(4-amino-3-(4-phenoxyphenyl)-1H-pyrazolo[3,4-D]pyrimidine-1-yl)-1-piperidyl)-acrylamide], for which the “Lck[IC50]/Btk[IC50]” value in series [1] is given as 285. For the same compound, the “B cell activity inhibition effect” value in [2] is on record as “obvious B cell activity inhibition effects”. Also, the “T cell activity inhibition effect” value in [3] is listed as “T cell activity inhibition effect”. For the same compound, the AUC(0-t) in series [4] (IV, 2 mg/kg) was determined as 888 ng·h/mL; in series [4] (PO, 30 mg/kg), 7420 ng·h/mL. The peak concentration (Cmax) in series [4] (IV, 2 mg/kg) is 1230 ng/mL; in series [4] (PO, 30 mg/kg) it was 3830 ng/mL. The Tmax in series [4] (IV, 2 mg/kg) was found to be 4.98 min; in [4] (PO, 30 mg/kg), 49.8 min. For the same compound, the half-life in series [4] (IV, 2 mg/kg) was 48 min; in series [4] (PO, 30 mg/kg), 45 min. The compound also showed a bioavailability in [4] (dog, oral, 30 mg/kg) of 54.6%. Further, the pIC50 in series [5] is 6.04; in [6], 5.85; in [7], 5.15; in series [8] it was under 5.00; in series [9] it was 5.09.
